Results: PubChem BioAssay AID1963870 (Molecular Pharmacology Branch, DTP, NCI, 2024)

Tested on: 292921-168-R-J2-PDC KRAS tumor spheroid viability
Assay: Anticancer human tumor 292921-168-R-J2-PDC patient-derived pancreatic carcinoma cell line growth inhibition [KRAS2]
Conditions: spheroids with HUVEC and MSC; for IC50: curve of first compound; for viability, T/C: stronger effect = lower value; active = viability on the fitted dose curve at most 10% of control; inactive = the rest
Excerpt: Multicellular complex tumor spheroid response to RAS pathway inhibitors in combination with a targeted agents in patient-derived cell lines with oncogenic KRAS variants from multiple cancer types
A high-throughput screen of multi-cell type tumor spheroids was designed to identify active combinations of targeted small molecules and KRAS pathway inhibitors. Complex spheroids include a stromal component modeled by human endothelial cells (HUVEC) and fibroblasts modeled by human mesenchymal stem cells (MSCs). The concentration ranges selected for each drug and investigational agent were based upon clinically achievable concentrations if the clinical Cmax of the agent was known.
Compounds. The drugs and investigational agents: BI-3406 (NSC825286), BAY-293 (NSC824723), batoprotafib (TNO155; NSC825523), sotorasib (AMG 510; NSC818433), MRTX1257 (NSC819558), elimusertib (BAY 1895344; NSC800525), molibresib (GSK525762; NSC774829), temuterkib (LY3214996; NSC803410), venetoclax (NSC766270), alisertib (NSC759677), olaparib (NSC753686), talazoparib (NSC767125), erdafitinib (NSC781556), ipatasertib (NSC767898), cabozantinib (NSC761068), nintedanib (NSC756659), abemaciclib (NSC768073), docetaxel (NSC628503), trametinib (NSC758246), and sapanisertib (NSC764658) were obtained from the National Cancer Institute (NCI) Developmental Therapeutics Program Chemical Repository. The FDA-approved anticancer drug set is available from the Developmental Therapeutics Program. […] The stock solutions were prepared in dimethyl sulfoxide (DMSO, Sigma-Aldrich, St. Louis, MO, cat. D2650) at 800-fold the tested concentration and stored at -70 degrees C prior to their use. All drugs and investigational agents were tested over a range starting from a high concentration at or near the clinical Cmax and decreasing in half-log increments. If the clinical Cmax for an agent had not been determined, the highest concentration tested was 10 microM.
Cell Culture. All cells were maintained in an incubator at 37 degrees C and 5% CO2 with 95% humidity. The PDC lines were cultured according to standard operating procedures established by the NCI PDMR (https://pdmr.cancer.gov/sops/default.htm). Briefly, all PDCs were thawed and cultured in Matrigel-coated flasks prepared with a working solution of 1X Ham's F-12 nutrient mix, without supplementation (Invitrogen, Waltham, MA, cat. 11765054), 100 U/mL penicillin-streptomycin (Invitrogen, cat. 15140122), and 2.5% Matrigel (Corning Inc., Corning, NY, cat. 354248) for the first three passages. All PDCs were cultured in complete DMEM/F-12 media containing advanced DMEM/F-12 (Invitrogen, cat. 12634028), 4.9% defined fetal bovine serum, heat inactivated (HyClone Laboratories Inc., Logan, UT, cat. SH30070.03HI), 389 ng/mL hydrocortisone (Sigma-Aldrich, cat. H4001), 9.7 ng/mL human EGF recombinant protein (Invitrogen, cat. PHG0313), 23.4 microg/mL adenine (Sigma-Aldrich, cat. A2786), 97.3 U/mL penicillin-streptomycin (Invitrogen, cat. 15140122), 1.9 mM L-glutamine (Invitrogen, cat. 25030081), and 9.7 microM Y-27632 dihydrochloride (Tocris Bioscience, Bristol, United Kingdom, cat. 1254). The PDCs were cultured in complete DMEM/F12 media without 9.7 microM Y-27632 dihydrochloride for at least two passages prior to the screen. The established cell line HOP-62 was cultured in RPMI 1640 medium, HEPES (Invitrogen, cat. 22400105) with 10% defined fetal bovine serum (HyClone Laboratories Inc., cat. SH30070.03) and 2 mM L-glutamine (Invitrogen, cat. 25030081). The pooled donor HUVEC were cultured in endothelial cell growth medium 2 (PromoCell, Heidelberg, Germany, cat. C-22011) and the hMSC were cultured in mesenchymal stem cell growth medium 2 (PromoCell, cat. C-28009). For all experiments, HUVEC and hMSC were used at passages </=5, while the malignant cell lines were used at passages </=15. […]

[1] = second compound 0.1 µM, first compound 0.0316 µM
[2] = second compound 0.1 µM, first compound 0.1 µM
[3] = second compound 0.316 µM, first compound 0.0316 µM
[4] = second compound 0.316 µM, first compound 0.1 µM
[5] = second compound 1 µM, first compound 0.0316 µM
[6] = second compound 1 µM, first compound 0.1 µM
[7] = second compound 3.16 µM, first compound 0.0316 µM
[8] = second compound 3.16 µM, first compound 0.1 µM
[9] = second compound 10 µM, first compound 0.0316 µM
[10] = second compound 10 µM, first compound 0.1 µM
[11] = second compound 0.1 µM, first compound 0.316 µM
[12] = second compound 0.1 µM, first compound 1 µM
[13] = second compound 0.1 µM, first compound 3.16 µM
[14] = second compound 0.1 µM, first compound 10 µM
[15] = second compound 0.316 µM, first compound 0.316 µM
[16] = second compound 0.316 µM, first compound 1 µM
[17] = second compound 0.316 µM, first compound 3.16 µM
[18] = second compound 0.316 µM, first compound 10 µM
[19] = second compound 1 µM, first compound 0.316 µM
[20] = second compound 1 µM, first compound 1 µM
[21] = second compound 1 µM, first compound 3.16 µM
[22] = second compound 1 µM, first compound 10 µM
[23] = second compound 3.16 µM, first compound 0.316 µM
[24] = second compound 3.16 µM, first compound 1 µM
[25] = second compound 3.16 µM, first compound 3.16 µM
[26] = second compound 3.16 µM, first compound 10 µM
[27] = second compound 10 µM, first compound 0.316 µM
[28] = second compound 10 µM, first compound 1 µM
[29] = second compound 10 µM, first compound 3.16 µM
[30] = second compound 10 µM, first compound 10 µM
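Also: drug exposure lasted seven days after spheroids formed for three days.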
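For viability, T/C in this document: percent of DMSO vehicle control viability which is 100%.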

CC(C)n1nc(-c2ccc3oc(N)nc3c2)c2c(N)ncnc21 + C=CC(=O)N1CCN(c2nc(=O)n(-c3c(C)ccnc3C(C)C)c3nc(-c4c(O)cccc4F)c(F)cc23)C(C)C1
0.00493 µM: IC50 (second compound 3.16 µM)
0.00689 µM: IC50 (second compound 0.1 µM)
< 0.000316 µM: IC50 (second compound 10 µM)
0.00961 µM: IC50 (second compound 0.316 µM)
inactive: viability, T/C (second compound 0.1 µM, first compound 0.000316 µM) 107% | viability, T/C (second compound 0.1 µM, first compound 0.001 µM) 88.6% | viability, T/C (second compound 0.1 µM, first compound 0.00316 µM) 62% | viability, T/C (second compound 0.1 µM, first compound 0.01 µM) 44.5% | viability, T/C [1] 32.8% | viability, T/C [2] 27% | viability, T/C (second compound 0.316 µM, first compound 0.000316 µM) 111% | viability, T/C (second compound 0.316 µM, first compound 0.001 µM) 99.7% | viability, T/C (second compound 0.316 µM, first compound 0.00316 µM) 66.9% | viability, T/C (second compound 0.316 µM, first compound 0.01 µM) 53.6% | viability, T/C [3] 33.6% | viability, T/C [4] 29.7% | viability, T/C (second compound 1 µM, first compound 0.000316 µM) 121% | viability, T/C (second compound 1 µM, first compound 0.001 µM) 99.7% | viability, T/C (second compound 1 µM, first compound 0.00316 µM) 77.1% | viability, T/C (second compound 1 µM, first compound 0.01 µM) 50.4% | viability, T/C [5] 38.3% | viability, T/C [6] 32.3% | viability, T/C (second compound 3.16 µM, first compound 0.000316 µM) 68.4% | viability, T/C (second compound 3.16 µM, first compound 0.001 µM) 72.6% | viability, T/C (second compound 3.16 µM, first compound 0.00316 µM) 55.3% | viability, T/C (second compound 3.16 µM, first compound 0.01 µM) 40.1% | viability, T/C [7] 36.7% | viability, T/C [8] 30.9% | viability, T/C (second compound 10 µM, first compound 0.000316 µM) 26.3% | viability, T/C (second compound 10 µM, first compound 0.001 µM) 33.3% | viability, T/C (second compound 10 µM, first compound 0.00316 µM) 30% | viability, T/C (second compound 10 µM, first compound 0.01 µM) 31.2% | viability, T/C [9] 29.5% | viability, T/C [10] 27.1%
0.0117 µM: IC50 (second compound 1 µM)

CC1(C)CCC(CN2CCN(c3ccc(C(=O)NS(=O)(=O)c4ccc(NCC5CCOCC5)c([N+](=O)[O-])c4)c(Oc4cnc5[nH]ccc5c4)c3)CC2)=C(c2ccc(Cl)cc2)C1 + C=CC(=O)N1CCN(c2nc(=O)n(-c3c(C)ccnc3C(C)C)c3nc(-c4c(O)cccc4F)c(F)cc23)C(C)C1
2.27 µM: IC50 (second compound 0.1 µM)
2.19 µM: IC50 (second compound 0.316 µM)
< 0.0316 µM: IC50 (second compound 10 µM)
2.02 µM: IC50 (second compound 1 µM)
1.26 µM: IC50 (second compound 3.16 µM)
inactive: viability, T/C [1] 107% | viability, T/C [2] 107% | viability, T/C [11] 106% | viability, T/C [12] 100% | viability, T/C [13] 29.5% | viability, T/C [3] 108% | viability, T/C [4] 111% | viability, T/C [15] 94.3% | viability, T/C [16] 114% | viability, T/C [17] 23.6% | viability, T/C [5] 113% | viability, T/C [6] 106% | viability, T/C [19] 102% | viability, T/C [20] 99.5% | viability, T/C [21] 18.6% | viability, T/C [7] 81.5% | viability, T/C [8] 80.8% | viability, T/C [23] 67.8% | viability, T/C [24] 59.8% | viability, T/C [25] 13.9% | viability, T/C [9] 28.4% | viability, T/C [10] 18.8% | viability, T/C [27] 21.6% | viability, T/C [28] 20.5% | viability, T/C [29] 7.43%
active: viability, T/C [14] 8.37% | viability, T/C [18] 8.55% | viability, T/C [22] 9.16% | viability, T/C [26] 10.9% | viability, T/C [30] 8.6%

COc1cc2nccc(Oc3ccc(NC(=O)C4(C(=O)Nc5ccc(F)cc5)CC4)cc3)c2cc1OC + C=CC(=O)N1CCN(c2nc(=O)n(-c3c(C)ccnc3C(C)C)c3nc(-c4c(O)cccc4F)c(F)cc23)C(C)C1
1.96 µM: IC50 (second compound 0.1 µM)
inactive: viability, T/C [1] 102% | viability, T/C [2] 102% | viability, T/C [11] 103% | viability, T/C [12] 79.6% | viability, T/C [13] 28.9% | viability, T/C [14] 18.6% | viability, T/C [3] 122% | viability, T/C [4] 112% | viability, T/C [15] 102% | viability, T/C [16] 77% | viability, T/C [17] 30.9% | viability, T/C [18] 19.8% | viability, T/C [5] 111% | viability, T/C [6] 108% | viability, T/C [19] 96.3% | viability, T/C [20] 69.3% | viability, T/C [21] 27% | viability, T/C [22] 17.2% | viability, T/C [7] 74.1% | viability, T/C [8] 77.6% | viability, T/C [23] 62.9% | viability, T/C [24] 49.6% | viability, T/C [25] 18.9% | viability, T/C [26] 14% | viability, T/C [9] 18.9% | viability, T/C [10] 25.4% | viability, T/C [27] 15.7% | viability, T/C [28] 22.5% | viability, T/C [29] 11.1%
< 0.0316 µM: IC50 (second compound 10 µM)
2 µM: IC50 (second compound 0.316 µM)
1.68 µM: IC50 (second compound 1 µM)
active: viability, T/C [30] 6.69%
0.822 µM: IC50 (second compound 3.16 µM)
